The test has as its target T1, SIRT1 (Homo sapiens, UniProt Q96EB6).
T1 sequence (Q96EB6 1-747): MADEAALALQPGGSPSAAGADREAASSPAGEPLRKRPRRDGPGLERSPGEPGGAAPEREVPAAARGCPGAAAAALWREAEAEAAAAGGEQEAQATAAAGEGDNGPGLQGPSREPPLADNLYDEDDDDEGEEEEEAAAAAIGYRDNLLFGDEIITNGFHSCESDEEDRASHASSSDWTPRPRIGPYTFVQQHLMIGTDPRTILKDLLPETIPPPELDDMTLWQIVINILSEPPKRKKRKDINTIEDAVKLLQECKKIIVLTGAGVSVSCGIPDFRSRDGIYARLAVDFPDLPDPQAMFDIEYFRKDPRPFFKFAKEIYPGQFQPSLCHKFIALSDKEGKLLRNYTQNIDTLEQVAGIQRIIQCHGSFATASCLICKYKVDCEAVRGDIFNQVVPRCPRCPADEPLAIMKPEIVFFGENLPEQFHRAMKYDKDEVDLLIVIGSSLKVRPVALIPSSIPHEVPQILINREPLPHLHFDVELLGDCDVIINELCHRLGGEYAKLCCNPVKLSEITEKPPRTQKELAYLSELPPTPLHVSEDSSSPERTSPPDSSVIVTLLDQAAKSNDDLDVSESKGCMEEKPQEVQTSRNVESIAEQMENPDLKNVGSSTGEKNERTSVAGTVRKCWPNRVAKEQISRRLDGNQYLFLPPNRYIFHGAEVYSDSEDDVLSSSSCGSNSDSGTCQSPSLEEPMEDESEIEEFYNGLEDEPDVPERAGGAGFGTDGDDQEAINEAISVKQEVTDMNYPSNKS
The experiment in a line: Trp mass spectrometry assay (SIRT1 activation). The settings on record: for Emax: percent maximum fold activation of SIRT1, read-out: Tryp % Fold Act. The format is biochemical. The procedure, abridged: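 N-His-tagged SIRT1 (10 nM), expressed in E. coli, was incubated with 0.5 μM Ac-RHKK(Ac)W-NH2 peptide and 120 μM NAD+ for 25 min at 25 °C in HEPES pH 7.5 with […]. The reaction was stopped with formic acid and O-acetyl-ADP-ribose or deacetylated peptide was quantified by mass spectrometry. Results are given as EC1.5 and percent maximal activation relative to DMSO control.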

Where [1] appears, read: concentration of test compound that results in 150% activation of SIRT1, Trp peptide substrate.
The mark [2] stands for this setting: Trp mass spectrometry assay, EC1.5 = concentration giving 150% activation of SIRT1.

Like-named read-outs stand apart in the source and are kept apart here. Where only a bound is given, the exact number is not on record here.

For `O=C(NCCc1cccnc1)N1c2nc(-c3cccc(C(F)(F)F)c3)ccc2N2CC[C@H]1C2` [Example 615], the “Tryp AVG EC1.5 (μM)” value under setting [1] is listed as “B (EC1.5 1-25 μM)”. The Emax (Trp peptide substrate) is no less than 150%.
As to `O=C(NCCN1CCOCC1)N1c2nc(-c3cccc(C(F)(F)F)c3)ccc2N2CC[C@H]1C2` [Example 616], the “Tryp AVG EC1.5 (μM)” value under setting [1] was “B (EC1.5 1-25 μM)”. Further, the Emax (Trp peptide substrate) is no less than 150%.
Taken in the same sequence, the figures for `O=C(Nc1cccc(C(F)(F)F)c1)N1c2nc(-c3cccc(C(F)(F)F)c3)ccc2N2CC[C@H]1C2` [Example 617] were “A (EC1.5<1 μM)” and no less than 150%.
With `O=C(Nc1cccc(-c2ccc(C(F)(F)F)cn2)c1)N1c2nc(-c3cccc(C(F)(F)F)c3)ccc2N2CC[C@H]1C2` [Example 618], the “Tryp AVG EC1.5 (μM)” value under setting [1] is recorded as “B (EC1.5 1-25 μM)”. Besides, under “Trp peptide substrate”, the Emax was no less than 150%.
For `Cc1ccc(-c2cccc(NC(=O)N3c4nc(-c5cccc(C(F)(F)F)c5)ccc4N4CC[C@H]3C4)c2)cc1C` [Example 619], the “Tryp AVG EC1.5 (μM)” value under setting [1] was “C (EC1.5>25 μM)”. Besides, the Emax (Trp peptide substrate) was less than 150%.
For `O=C1CN2C[C@H]1N(C(=O)Nc1ccccn1)c1nc(-c3cccc(C(F)(F)F)c3)ccc12` [Example 620], under setting [1], the “Tryp AVG EC1.5 (μM)” value is recorded as “B (EC1.5 1-25 μM)”. Moreover, the Emax (Trp peptide substrate) is no less than 150%.
In the case of `Cn1nccc1-c1cccc(NC(=O)N2c3nc(-c4cccc(C(F)(F)F)c4)ccc3N3CC[C@H]2C3)n1` [Example 623], the “Tryp AVG EC1.5 (μM)” value under setting [1] is on record as “A (EC1.5<1 μM)”. Under “Trp peptide substrate”, the Emax was no less than 150%.
On to `O=C(Nc1ccc2c(c1)CCC2)N1c2nc(-c3cccc(C(F)(F)F)c3)ccc2N2CC[C@H]1C2` [Example 624], for which the “Tryp AVG EC1.5 (μM)” value under setting [1] is “B (EC1.5 1-25 μM)”. Further, the Emax (Trp peptide substrate) is no less than 150%.
With `O=C(Nc1cccc(-c2ccccc2)c1)N1c2nc(-c3cccc(C(F)(F)F)c3)ccc2N2CC[C@H]1C2` [Example 625], the “Tryp AVG EC1.5 (μM)” value under setting [2] is given as “A (EC1.5<1 μM)”. For the setting “Trp mass spectrometry assay”, the Emax was no less than 150%.
Regarding `COC(=O)c1cccc(NC(=O)N2c3nc(-c4cccc(C(F)(F)F)c4)ccc3N3CC[C@H]2C3)c1` [Example 626], the “Tryp AVG EC1.5 (μM)” value under setting [2] was “A (EC1.5<1 μM)”. Also, for the setting “Trp mass spectrometry assay”, the Emax is no less than 150%.
As to `O=C(NCCCn1ccnc1)N1c2nc(-c3cccc(C(F)(F)F)c3)ccc2N2CC[C@H]1C2` [Example 627], the “Tryp AVG EC1.5 (μM)” value under setting [2] is “B (EC1.5 1-25 μM)”. The Emax (Trp mass spectrometry assay) was no less than 150%.
The corresponding values for `O=C(Nc1ccc(N2CCCCC2)cc1)N1c2nc(-c3cccc(C(F)(F)F)c3)ccc2N2CC[C@H]1C2` [Example 628] are “B (EC1.5 1-25 μM)” and no less than 150%.
On to `O=C(Nc1cccc(CN2CCOCC2)c1)N1c2nc(-c3cccc(C(F)(F)F)c3)ccc2N2CC[C@H]1C2` [Example 629], for which the “Tryp AVG EC1.5 (μM)” value under setting [2] is listed as “A (EC1.5<1 μM)”. In addition, the Emax (Trp mass spectrometry assay) was no less than 150%.
For `O=C(Nc1cncc(F)c1)N1c2nc(-c3cccc(C(F)(F)F)c3)ccc2N2C[C@@H](O)[C@H]1C2` [Example 630], under setting [2], the “Tryp AVG EC1.5 (μM)” value was “A (EC1.5<1 μM)”. For the same compound, for the setting “Trp mass spectrometry assay”, the Emax is no less than 150%.
With `O=C(Nc1cccnn1)N1c2nc(-c3cccc(C(F)(F)F)c3)ccc2N2C[C@@H](O)[C@H]1C2` [Example 631], the “Tryp AVG EC1.5 (μM)” value under setting [2] is “B (EC1.5 1-25 μM)”. Under “Trp mass spectrometry assay”, the Emax was no less than 150%.
In the case of `Cc1nccn1CCCNC(=O)N1c2nc(-c3cccc(C(F)(F)F)c3)ccc2N2CC[C@H]1C2` [Example 632], the “Tryp AVG EC1.5 (μM)” value under setting [2] is recorded as “C (EC1.5>25 μM)”. Further, the Emax (Trp mass spectrometry assay) was no less than 150%.
With `O=C(NCCCc1ccncc1)N1c2nc(-c3cccc(C(F)(F)F)c3)ccc2N2CC[C@H]1C2` [Example 633], the “Tryp AVG EC1.5 (μM)” value under setting [2] was “B (EC1.5 1-25 μM)”. In addition, the Emax (Trp mass spectrometry assay) was no less than 150%.
Regarding `CC(=O)O[C@H]1CN2C[C@H]1N(C(=O)Nc1ccccn1)c1nc(-c3cccc(C(F)(F)F)c3)ccc12` [Example 634], the “Tryp AVG EC1.5 (μM)” value under setting [2] is listed as “C (EC1.5>25 μM)”. Further, where the note is “Trp mass spectrometry assay”, the Emax is less than 150%.
As to `CC(=O)N1CCC(c2cccc(NC(=O)N3c4nc(-c5cccc(C(F)(F)F)c5)ccc4N4CC[C@H]3C4)c2)C1` (stereo partly drawn) [Example 635], the “Tryp AVG EC1.5 (μM)” value under setting [2] is given as “A (EC1.5<1 μM)”. For the same compound, the Emax (Trp mass spectrometry assay) was no less than 150%.
For the compound `CCC(=O)N1CCC(c2cccc(NC(=O)N3c4nc(-c5cccc(C(F)(F)F)c5)ccc4N4CC[C@H]3C4)c2)C1` (stereo partly drawn) [Example 636], under setting [2], the “Tryp AVG EC1.5 (μM)” value is recorded as “A (EC1.5<1 μM)”. Moreover, the Emax (Trp mass spectrometry assay) is no less than 150%.
Taken in the same sequence, the figures for `O=C(C1CC1)N1CCC(c2cccc(NC(=O)N3c4nc(-c5cccc(C(F)(F)F)c5)ccc4N4CC[C@H]3C4)c2)C1` (stereo partly drawn) [Example 637] were “A (EC1.5<1 μM)” and no less than 150%.
Taken in the same sequence, the figures for `CC(C)(C)OC(=O)NCc1cnnn1-c1cccc(NC(=O)N2c3nc(-c4cccc(C(F)(F)F)c4)ccc3N3CC[C@H]2C3)c1` [Example 638] were “A (EC1.5<1 μM)” and no less than 150%.
On to `NCCCCCC(=O)NCc1cn(-c2cccc(NC(=O)N3c4nc(-c5cccc(C(F)(F)F)c5)ccc4N4CC[C@H]3C4)c2)nn1` [Example 639], for which the “Tryp AVG EC1.5 (μM)” value under setting [2] is listed as “A (EC1.5<1 μM)”. For the same compound, the Emax (Trp mass spectrometry assay) was no less than 150%.
As to `NCc1cnnn1-c1cccc(NC(=O)N2c3nc(-c4cccc(C(F)(F)F)c4)ccc3N3CC[C@H]2C3)c1` [Example 640], the “Tryp AVG EC1.5 (μM)” value under setting [2] is “A (EC1.5<1 μM)”. For the setting “Trp mass spectrometry assay”, the Emax is no less than 150%.
Taken in the same sequence, the figures for `O=C(Nc1ccc(Oc2ccccc2)cc1)N1c2nc(-c3cccc(C(F)(F)F)c3)ccc2N2CC[C@H]1C2` [Example 641] were “C (EC1.5>25 μM)” and less than 150%.
Turning to `CS(=O)(=O)Nc1cccc(NC(=O)N2c3nc(-c4cccc(C(F)(F)F)c4)ccc3N3CC[C@H]2C3)c1` [Example 642], under setting [2], the “Tryp AVG EC1.5 (μM)” value is on record as “A (EC1.5<1 μM)”. Also, the Emax (Trp mass spectrometry assay) is no less than 150%.
Taken in the same sequence, the figures for `NS(=O)(=O)c1ccc(NC(=O)N2c3nc(-c4cccc(C(F)(F)F)c4)ccc3N3CC[C@H]2C3)cc1` [Example 643] were “A (EC1.5<1 μM)” and no less than 150%.
`COc1cc(NC(=O)N2c3nc(-c4cccc(C(F)(F)F)c4)ccc3N3C[C@@H](O)[C@H]2C3)ncn1` [Example 644]: the “Tryp AVG EC1.5 (μM)” value under setting [2] is “B (EC1.5 1-25 μM)”. In addition, the Emax (Trp mass spectrometry assay) was no less than 150%.
Taken in the same sequence, the figures for `O=C(Nc1cnccn1)N1c2nc(-c3cccc(C(F)(F)F)c3)ccc2N2C[C@@H](O)[C@H]1C2` [Example 645] were “A (EC1.5<1 μM)” and no less than 150%.
Taken in the same sequence, the figures for `O=C(Nc1nncs1)N1c2nc(-c3cccc(C(F)(F)F)c3)ccc2N2CC[C@H]1C2` [Example 646] were “A (EC1.5<1 μM)” and no less than 150%.
Taken in the same sequence, the figures for `CCc1nnc(NC(=O)N2c3nc(-c4cccc(C(F)(F)F)c4)ccc3N3CC[C@H]2C3)s1` [Example 647] were “A (EC1.5<1 μM)” and no less than 150%.
On to `O=C(Nc1nnc(-c2ccccc2)s1)N1c2nc(-c3cccc(C(F)(F)F)c3)ccc2N2CC[C@H]1C2` [Example 648], for which, under setting [2], the “Tryp AVG EC1.5 (μM)” value is listed as “A (EC1.5<1 μM)”. Also, the Emax (Trp mass spectrometry assay) was no less than 150%.
Turning to `CC(C)(C)c1nnc(NC(=O)N2c3nc(-c4cccc(C(F)(F)F)c4)ccc3N3CC[C@H]2C3)s1` [Example 649], the “Tryp AVG EC1.5 (μM)” value under setting [2] was “B (EC1.5 1-25 μM)”. Moreover, the Emax (Trp mass spectrometry assay) is no less than 150%.
Take `O=C(Nc1nnc(C(F)(F)F)s1)N1c2nc(-c3cccc(C(F)(F)F)c3)ccc2N2CC[C@H]1C2` [Example 650]: under setting [2], the “Tryp AVG EC1.5 (μM)” value was “C (EC1.5>25 μM)”. Also, the Emax (Trp mass spectrometry assay) was less than 150%.
Consider `O=C(Nc1nnc(-c2cccnc2)s1)N1c2nc(-c3cccc(C(F)(F)F)c3)ccc2N2CC[C@H]1C2` [Example 651], for which the “Tryp AVG EC1.5 (μM)” value under setting [2] was “A (EC1.5<1 μM)”. The Emax (Trp mass spectrometry assay) was no less than 150%.
Taken in the same sequence, the figures for `O=C(Nc1cccc(Br)n1)N1c2nc(-c3cccc(C(F)(F)F)c3)ccc2N2CC[C@H]1C2` [Example 652] were “A (EC1.5<1 μM)” and no less than 150%.
Taken in the same sequence, the figures for `O=C(Nc1cccc(-c2ccsc2)n1)N1c2nc(-c3cccc(C(F)(F)F)c3)ccc2N2CC[C@H]1C2` [Example 653] were “A (EC1.5<1 μM)” and no less than 150%.
Regarding `O=C(Nc1cccc(-c2ccoc2)n1)N1c2nc(-c3cccc(C(F)(F)F)c3)ccc2N2CC[C@H]1C2` [Example 654], the “Tryp AVG EC1.5 (μM)” value under setting [2] was “A (EC1.5<1 μM)”. Also, the Emax (Trp mass spectrometry assay) is no less than 150%.
As to `O=C(Nc1cccc(-c2cccnc2)n1)N1c2nc(-c3cccc(C(F)(F)F)c3)ccc2N2CC[C@H]1C2` [Example 655], under setting [2], the “Tryp AVG EC1.5 (μM)” value is on record as “A (EC1.5<1 μM)”. For the same compound, the Emax (Trp mass spectrometry assay) was no less than 150%.

The values above are taken from patent US9765075B2, “Substituted bridged urea analogs as sirtuin modulators” (GLAXOSMITHKLINE LLC, priority 2013, dated 2017).
